The record followed here is article PMC5845004, “Novel (p)ppGpp Binding and Metabolizing Proteins of Escherichia coli” (mBio, 2018).

Data set [1] has as its target T1, NudG (Escherichia coli, UniProt P77788).
T1 construct: expressed in transfected cells; host or cells: E. coli ASKA collection strain, IPTG-induced, whole-cell lysate
The experiment in a line: DRaCALA competition assay, lysate with overproduced NudG. It counts as binding, E. coli. As to conditions: whole-cell lysate, 2 nM hot (p)ppGpp, 100 µM cold competitor. Here is the method: (§1) Bacterial cells were collected and frozen at −80°C.

The target in data set [2] is T1, NudG. In words: In vitro cleavage assay (TLC), NudG. It counts as biochemical, E. coli. As to conditions: 1 µM NudG, 10 nM hot ppGpp, 100 µM competitor, 30°C. Here is the method:
(§2) The purified His6-MutT and His6-NudG proteins were tested for their relative levels of cleavage of ppGpp compared to those seen with their native substrates. For this, a 1 μM concentration of each protein and a 10 nM concentration of [α-^32P]ppGpp were used together with 100 μM concentrations of cold competitors [ppGpp, GTP, ATP, 8-oxo-(d)GTP, 2-hydroxyl-(d)ATP] or 50 mM EDTA in buffer B. The samples were incubated at 30°C for 10 min and for 1 h before the reactions were stopped by adding 50 mM EDTA. The cleavage products were resolved by TLC as described above. The purified His6-NadR and His6-TrmE proteins were tested for their cleavage of both GTP and ppGpp. For cleavage of GTP, 10 μM concentrations of His6-MBP, His6-TrmE, and 20 μM His6-NadR proteins were used with 2 nM [α-^32P]GTP and 100 μM cold GTP in buffer B. For cleavage of ppGpp, 10 μM concentrations of His6-TrmE, His6-MBP, and His6-NadR proteins were used with 10 nM [α-^32P]ppGpp in buffer B. Of note, for His6-TrmE, another reaction was also performed in buffer B supplemented with 100 mM KCl. The reactions were performed at RT for 10 min and were stopped by adding 17% formic acid. The cleavage products were resolved by TLC as described above.
(§3) A 20 μM concentration of each of purified proteins MutT, NudG, NadR, TrmE, and MBP (as a negative control) was incubated with 100 μM ppGpp in buffer B (containing 40 mM Tris [pH 7.5], 100 mM NaCl, and 10 mM MgCl2) for 20 min at room temperature. Samples were snap-frozen on dry ice and analyzed with UPLC-MS afterward. All samples and buffers were stored at −80°C, thawed on ice, and kept at 4°C during analysis. For the analysis, a UPLC-quadrupole time of flight (UPLC-qTOF) method (Waters) was used. Analysis conditions were as follows: column, zic-HILIC (Merck Millipore) (150 by 2.1 mm, […], gradient elution, flow rate set to 0.3 ml/min); mobile phase A, 10 mM ammonium acetate (pH 5); mobile phase B, 90% acetonitrile with 10 mM ammonium acetate (pH 5). The gradient was set up as follows: min 0 to 2, 80% B; min 2 to 16, 80% B to 50% B; hold until min 20; injection volume, 4 µl. The detection conditions were as follows: photodiode array detector (PDA), […] (evaluated at 260 nm); MS, ionization; electrospray ionization (ESI+), scan, 200 to 800 m/z with lock mass correction. Analytes were identified by their accurate mass and retention time data for a known standard dissolved in used buffer (for the chemicals of the same nominal masses). These standards were either synthesized and their structures confirmed by nuclear magnetic resonance (NMR) (for ppGp, pGpp, and pGp) or purchased (ppGpp was purchased from Jena Biocsience and GTP from Sigma-Aldrich).

Data set [3] addresses T2, YgdH (Escherichia coli, UniProt P0ADR8). In words: DRaCALA competition assay, YgdH. The data set is classed as binding, E. coli. The following applies: 50 µM YgdH, 100 µM cold competitor, without or with 1.5 mM magnesium.
Procedure: (§4) For Kd measurements by DRaCALA, 2-fold serial dilutions from the highest possible concentrations of each purified protein were prepared in binding buffer B, and approximately 2 nM concentrations of α-^32P-labeled ppGpp, pppGpp, GTP, and GDP were added. The mixtures were incubated for 5 min at RT before spotting of 2 µl of the reaction mixtures onto nitrocellulose membranes. […] For competition assays, purified proteins at the specified concentrations were incubated with 2 nM [α-^32P]ppGpp or [α-^32P]pppGpp in the presence of 100 μM competitor nucleotides in binding buffer B. The reaction mixtures were incubated for 5 min at RT, 2 µl was spotted onto nitrocellulose membranes, and the values corresponding to the bound fractions were determined. EDTA was added at excess concentrations as specified for each case.
Data set [4] deals with T3, MutT (Escherichia coli, UniProt P08337). The following applies: whole-cell lysate, 2 nM hot (p)ppGpp, 100 µM cold competitor.
T3 sequence (P08337 whole entry): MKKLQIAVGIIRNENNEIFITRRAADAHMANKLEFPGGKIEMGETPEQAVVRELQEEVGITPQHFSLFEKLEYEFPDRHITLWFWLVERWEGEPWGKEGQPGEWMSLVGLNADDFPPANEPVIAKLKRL
Procedure: DRaCALA screening was performed essentially as described before ([39]) with minor modifications. Briefly, ASKA collection strains were inoculated into 1.5 ml LB broth with 25 μg/ml chloramphenicol in deep 96-well plates (Greiner) and grown over night at 30°C. IPTG (1 mM) was added the next morning to induce protein expression at 30°C for 6 h. Bacterial cells were collected and frozen at −80°C. To lyse cells, 150 μl buffer B with 2 mM phenylmethylsulfonyl fluoride (PMSF), 40 μg/ml DNase 1, and 0.5 mg/ml lysozyme was used to resuspend cell pellets and then subjected to three freeze-thaw cycles before Benzonase (Sigma) (2.5 U/well) was added to reduce lysate viscosity. A 20-μl volume of lysate was transferred into a 96-well V-bottom plate (Sterilin), incubated at 37°C for 15 min, and placed on ice. […] Membranes were dried for 10 min at RT, and binding signals were exposed to a BAS IP screen (GE Healthcare) and detected by the use of a Typhoon FLA-7000 PhosphorImager.
For competition assays, purified proteins at the specified concentrations were incubated with 2 nM [α-^32P]ppGpp or [α-^32P]pppGpp in the presence of 100 μM competitor nucleotides in binding buffer B. The reaction mixtures were incubated for 5 min at RT, 2 µl was spotted onto nitrocellulose membranes, and the values corresponding to the bound fractions were determined.
The target of data set [5] is T3, MutT. The experiment in a line: In vitro cleavage assay (TLC), MutT. The data set is classed as biochemical, E. coli. As to conditions: 1 µM MutT, 10 nM hot ppGpp, 100 µM competitor, 30°C, up to 1 h. Here is the method: as §2, §3
In data set [6] the target is Hpt (Escherichia coli, UniProt P0A9M2). In words: DRaCALA competition assay, Hpt. The data set is classed as binding, E. coli. As to conditions: 20 µM Hpt, 2 nM hot ppGpp, 100 µM cold competitor.
Chain of Hpt (P0A9M2 whole entry): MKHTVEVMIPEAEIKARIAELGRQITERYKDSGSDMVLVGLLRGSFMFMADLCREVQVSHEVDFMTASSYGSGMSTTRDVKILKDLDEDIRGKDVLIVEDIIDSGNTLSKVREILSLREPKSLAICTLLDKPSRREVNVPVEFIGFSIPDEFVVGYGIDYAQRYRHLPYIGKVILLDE
Procedure: For Kd measurements by DRaCALA, 2-fold serial dilutions from the highest possible concentrations of each purified protein were prepared in binding buffer B, and approximately 2 nM concentrations of α-^32P-labeled ppGpp, pppGpp, GTP, and GDP were added. The mixtures were incubated for 5 min at RT before spotting of 2 µl of the reaction mixtures onto nitrocellulose membranes. The fractions of bound ligand and the apparent Kd values were calculated as previously described ([37]). For competition assays, purified proteins at the specified concentrations were incubated with 2 nM [α-^32P]ppGpp or [α-^32P]pppGpp in the presence of 100 μM competitor nucleotides in binding buffer B. The reaction mixtures were incubated for 5 min at RT, 2 µl was spotted onto nitrocellulose membranes, and the values corresponding to the bound fractions were determined. EDTA was added at excess concentrations as specified for each case.
Data set [7] deals with Der (Escherichia coli, UniProt P0A6P5). The experiment in a line: DRaCALA Kd determination, purified Der. The following applies: 2 nM 32P-labeled ligand, read-out: apparent Kd, Der. The data set is classed as binding, E. coli.
Chain of Der (P0A6P5 whole entry): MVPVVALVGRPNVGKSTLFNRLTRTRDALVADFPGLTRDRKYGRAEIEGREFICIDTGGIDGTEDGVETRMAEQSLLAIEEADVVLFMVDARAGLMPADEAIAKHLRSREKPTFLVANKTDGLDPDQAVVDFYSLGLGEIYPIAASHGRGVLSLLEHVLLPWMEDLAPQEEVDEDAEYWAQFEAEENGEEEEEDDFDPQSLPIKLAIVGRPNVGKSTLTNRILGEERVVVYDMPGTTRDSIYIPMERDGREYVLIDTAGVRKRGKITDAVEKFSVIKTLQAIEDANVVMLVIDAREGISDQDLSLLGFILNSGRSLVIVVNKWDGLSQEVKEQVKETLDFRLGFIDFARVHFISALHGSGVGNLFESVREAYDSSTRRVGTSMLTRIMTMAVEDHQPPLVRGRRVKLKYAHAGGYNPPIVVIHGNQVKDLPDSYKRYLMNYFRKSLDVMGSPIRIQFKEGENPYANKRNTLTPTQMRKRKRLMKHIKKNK
Procedure: as §4
In data set [8] the target is T4, UshA (Escherichia coli, UniProt P07024).
T4 sequence (P07024 26-550): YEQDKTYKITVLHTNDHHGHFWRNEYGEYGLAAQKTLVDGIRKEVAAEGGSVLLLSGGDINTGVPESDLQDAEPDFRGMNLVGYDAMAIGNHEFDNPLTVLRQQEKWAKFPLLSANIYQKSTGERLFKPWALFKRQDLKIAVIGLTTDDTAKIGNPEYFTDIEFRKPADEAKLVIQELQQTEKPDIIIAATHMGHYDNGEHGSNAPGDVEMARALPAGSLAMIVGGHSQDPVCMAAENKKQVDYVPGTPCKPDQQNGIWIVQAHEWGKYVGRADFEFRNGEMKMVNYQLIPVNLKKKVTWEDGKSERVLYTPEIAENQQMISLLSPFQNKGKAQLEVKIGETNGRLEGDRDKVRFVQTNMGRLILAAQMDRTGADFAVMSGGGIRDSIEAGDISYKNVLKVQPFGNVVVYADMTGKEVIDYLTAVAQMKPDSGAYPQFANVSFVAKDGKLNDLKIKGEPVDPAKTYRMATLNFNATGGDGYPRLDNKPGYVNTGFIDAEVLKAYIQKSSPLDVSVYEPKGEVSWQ
In words: DRaCALA competition assay, lysate with overexpressed UshA. The following applies: cell lysate, 2 nM hot (p)ppGpp, 100 µM cold competitor. It counts as binding. Here is the method:
as §1

In data set [9] the target is HypB (Escherichia coli, UniProt P0AAN3). The experiment in a line: DRaCALA Kd determination, purified HypB. The data set is classed as binding, E. coli. As to conditions: 2 nM 32P-labeled ligand, read-out: apparent Kd, HypB.
Chain of HypB (P0AAN3 whole entry): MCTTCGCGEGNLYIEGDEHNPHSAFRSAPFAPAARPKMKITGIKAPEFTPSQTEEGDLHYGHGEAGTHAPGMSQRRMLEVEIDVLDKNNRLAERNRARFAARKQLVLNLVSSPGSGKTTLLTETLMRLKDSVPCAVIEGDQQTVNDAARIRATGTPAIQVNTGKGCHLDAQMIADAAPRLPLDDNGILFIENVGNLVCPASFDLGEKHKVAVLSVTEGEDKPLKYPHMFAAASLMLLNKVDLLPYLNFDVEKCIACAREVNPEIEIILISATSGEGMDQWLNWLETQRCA
Procedure: as §4
The target in data set [10] is T5, TrmE (Escherichia coli, UniProt P25522). The experiment in a line: DRaCALA Kd determination, purified TrmE. The data set is classed as binding, E. coli. As to conditions: in the presence of magnesium, read-out: apparent Kd, TrmE.
T5 sequence (P25522 whole entry): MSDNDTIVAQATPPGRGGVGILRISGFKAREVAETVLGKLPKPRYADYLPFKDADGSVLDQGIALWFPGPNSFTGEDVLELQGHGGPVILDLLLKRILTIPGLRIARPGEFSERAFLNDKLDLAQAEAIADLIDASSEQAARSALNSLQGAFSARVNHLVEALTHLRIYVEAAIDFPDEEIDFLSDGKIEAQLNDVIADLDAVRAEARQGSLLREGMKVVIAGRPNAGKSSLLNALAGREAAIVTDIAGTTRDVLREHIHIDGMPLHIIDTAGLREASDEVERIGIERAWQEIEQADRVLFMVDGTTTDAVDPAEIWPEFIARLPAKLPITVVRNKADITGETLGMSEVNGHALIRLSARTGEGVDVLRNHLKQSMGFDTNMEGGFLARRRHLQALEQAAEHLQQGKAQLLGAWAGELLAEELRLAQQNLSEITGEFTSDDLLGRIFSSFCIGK
Procedure: as §4
For data set [11], the target named is T2, YgdH. The experiment in a line: DRaCALA binding and Kd determination, purified YgdH. As to conditions: DRaCALA, in the presence of EDTA (without Mg2+); read-out: Kd, YgdH + EDTA (converted). Set-up: species or system E. coli.
Procedure: as §4
The target in data set [12] is RF3 (PrfC) (Escherichia coli, UniProt P0A7I4). In words: DRaCALA Kd determination, purified RF3. It counts as binding, E. coli. As to conditions: 2 nM 32P-labeled ligand, read-out: apparent Kd, RF3 (PrfC).
Chain of RF3 (PrfC) (P0A7I4 whole entry): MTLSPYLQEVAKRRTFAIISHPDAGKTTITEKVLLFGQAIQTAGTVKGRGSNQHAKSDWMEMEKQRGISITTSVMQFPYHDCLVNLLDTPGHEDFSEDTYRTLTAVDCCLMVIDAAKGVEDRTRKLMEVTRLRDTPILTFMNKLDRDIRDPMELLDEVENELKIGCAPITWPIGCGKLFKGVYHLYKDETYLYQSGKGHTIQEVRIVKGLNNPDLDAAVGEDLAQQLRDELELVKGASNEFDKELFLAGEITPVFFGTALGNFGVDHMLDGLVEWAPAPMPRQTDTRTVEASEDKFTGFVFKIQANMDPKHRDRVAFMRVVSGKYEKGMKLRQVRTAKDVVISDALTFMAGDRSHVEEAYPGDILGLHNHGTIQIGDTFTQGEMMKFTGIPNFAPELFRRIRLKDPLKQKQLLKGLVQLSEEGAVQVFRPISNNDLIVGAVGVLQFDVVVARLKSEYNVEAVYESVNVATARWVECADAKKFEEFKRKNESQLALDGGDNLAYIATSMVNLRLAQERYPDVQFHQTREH
Procedure: (§5) For Kd measurements by DRaCALA, 2-fold serial dilutions from the highest possible concentrations of each purified protein were prepared in binding buffer B, and approximately 2 nM concentrations of α-^32P-labeled ppGpp, pppGpp, GTP, and GDP were added. The mixtures were incubated for 5 min at RT before spotting of 2 µl of the reaction mixtures onto nitrocellulose membranes. The fractions of bound ligand and the apparent Kd values were calculated as previously described ([37]).
Data set [13] has as its target SaDer (Staphylococcus aureus, UniProt A6QH24). The experiment in a line: DRaCALA Kd determination, SaDer. It counts as binding, S. aureus.
Procedure: as §5
Data set [14] concerns the target T5, TrmE. In words: In vitro cleavage assay (TLC), TrmE. The data set is classed as biochemical, E. coli. As to conditions: 10 µM TrmE, buffer B, with 100 mM potassium where stated, 10 min. Here is the method: as §2
A 20 μM concentration of each of purified proteins MutT, NudG, NadR, TrmE, and MBP (as a negative control) was incubated with 100 μM ppGpp in buffer B (containing 40 mM Tris [pH 7.5], 100 mM NaCl, and 10 mM MgCl2) for 20 min at room temperature. Samples were snap-frozen on dry ice and analyzed with UPLC-MS afterward. All samples and buffers were stored at −80°C, thawed on ice, and kept at 4°C during analysis. For the analysis, a UPLC-quadrupole time of flight (UPLC-qTOF) method (Waters) was used. […] The detection conditions were as follows: photodiode array detector (PDA), […] (evaluated at 260 nm); MS, ionization; electrospray ionization (ESI+), scan, 200 to 800 m/z with lock mass correction. […]

Data set [15] concerns the molecule itself. In words: SEC; size exclusion FPLC profile of purified His6-YgdH (53 kDa) compared with protein standards.

T1 sequence (P77788 whole entry): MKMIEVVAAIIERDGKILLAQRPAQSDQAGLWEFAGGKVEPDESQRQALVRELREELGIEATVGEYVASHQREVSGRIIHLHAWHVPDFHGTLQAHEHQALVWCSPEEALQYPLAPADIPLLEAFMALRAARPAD
Chain of SaDer (A6QH24 whole entry): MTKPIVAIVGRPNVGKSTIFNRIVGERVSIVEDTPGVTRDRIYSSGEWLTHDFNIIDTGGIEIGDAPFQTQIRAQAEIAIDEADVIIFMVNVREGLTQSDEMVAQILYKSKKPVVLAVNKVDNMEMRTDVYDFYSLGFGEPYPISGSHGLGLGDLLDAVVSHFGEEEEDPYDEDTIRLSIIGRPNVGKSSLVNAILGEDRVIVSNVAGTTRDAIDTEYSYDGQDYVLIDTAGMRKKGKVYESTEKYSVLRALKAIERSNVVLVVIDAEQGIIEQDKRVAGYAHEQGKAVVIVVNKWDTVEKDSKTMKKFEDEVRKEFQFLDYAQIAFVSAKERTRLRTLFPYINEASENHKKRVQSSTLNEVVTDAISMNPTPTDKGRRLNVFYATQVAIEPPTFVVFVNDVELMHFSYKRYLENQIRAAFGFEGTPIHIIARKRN

2-OH-(d)ATP: the “competition for NudG-bound (p)ppGpp” value in data set [1] is “comparable to unlabeled ppGpp”. Moreover, the “inhibition of [α-32P]ppGpp cleavage by NudG” value in data set [2] was “slightly better than ppGpp”.

Regarding `Nc1ncnc2c1ncn2[C@@H]1O[C@H](COP(=O)(O)O)[C@@H](O)[C@H]1O` [AMP], the “competition for [α-32P]ppGpp binding to YgdH by YgdH substrates” value in data set [3] is recorded as “none of them could outcompete ppGpp”.

Turning to 8-oxo-(d)GTP, in [4], the “competition for MutT-bound (p)ppGpp” value was “completely outcompete”. Also, the “inhibition of [α-32P]ppGpp cleavage by MutT” value in data set [5] is listed as “totally inhibited”.

On to `O=P(O)(O)OC[C@H]1OC(OP(=O)(O)OP(=O)(O)O)[C@H](O)[C@@H]1O` (stereo partly shown) [PRPP, phosphoribosyl pyrophosphate], for which the “competition for bound [α-32P]ppGpp on Hpt” value in [6] is reported as “partially outcompete”.

For `Nc1nc2c(ncn2[C@@H]2O[C@H](COP(=O)(O)OP(=O)(O)O)[C@@H](O)[C@H]2O)c(=O)[nH]1` [GDP], in [1], the “competition for NudG-bound (p)ppGpp” value was “but not the structurally very similar GTP and GDP”. In [7], the Kd is 1.3 ± 0.1 µM. Besides, the “competition for UshA-bound (p)ppGpp” value in data set [8] was “but not the structurally very similar GTP and GDP”.

Regarding `Nc1nc2c(ncn2[C@@H]2O[C@H](COP(=O)(O)O)[C@@H](O)[C@H]2O)c(=O)[nH]1` [GMP], the “competition for [α-32P]ppGpp binding to YgdH by YgdH substrates” value in data set [3] is listed as “none of them could outcompete ppGpp”.

On to `Nc1nc2c(ncn2[C@@H]2O[C@H](COP(=O)(O)OP(=O)(O)OP(=O)(O)O)[C@@H](O)[C@H]2O)c(=O)[nH]1` [GTP], for which the “competition for NudG-bound (p)ppGpp” value in data set [1] is “but not the structurally very similar GTP and GDP”. For the same molecule, the Kd in data set [9] is 9 ± 1.8 µM; in data set [10] it was 4.6 ± 1.1 µM; in data set [11] it was 21.4 ± 11.5 µM; in [12], 29.3 ± 9.8 µM; in data set [7], 13.7 ± 7.1 µM; in data set [13] it was 3.5 ± 0.8 µM. In addition, in data set [5], the “inhibition of [α-32P]ppGpp cleavage by MutT” value is given as “very limited inhibitory effects”. Also, the “cleavage by TrmE” value in data set [14] was “converted almost all GTP”. Besides, the “competition for UshA-bound (p)ppGpp” value in data set [8] was “but not the structurally very similar GTP and GDP”.

Consider `Nc1ncnc2c1ncn2[C@@H]1O[C@H](COP(=O)(O)OP(=O)(O)OP(=O)(O)O)[C@@H](O)[C@H]1O` [ATP], for which the “competition for NudG-bound (p)ppGpp” value in data set [1] is “did not compete”.

B1: YgdH (ECK2790), His6-YgdH (enzyme, E. coli K-12, UniProt P0ADR8 1-454, looked up)
chain: MITHISPLGSMDMLSQLEVDMLKRTASSDLYQLFRNCSLAVLNSGSLTDNSKELLSRFENFDINVLRRERGVKLELINPPEEAFVDGRIIRALQANLFAVLRDILFVYGQIHNTVRFPNLNLDNSVHITNLVFSILRNARALHVGEAPNMVVCWGGHSINENEYLYARRVGNQLGLRELNICTGCGPGAMEAPMKGAAVGHAQQRYKDSRFIGMTEPSIIAAEPPNPLVNELIIMPDIEKRLEAFVRIAHGIIIFPGGVGTAEELLYLLGILMNPANKDQVLPLILTGPKESADYFRVLDEFVVHTLGENARRHYRIIIDDAAEVARQMKKSMPLVKENRRDTGDAYSFNWSMRIAPDLQMPFEPSHENMANLKLYPDQPVEVLAADLRRAFSGIVAGNVKEVGIRAIEEFGPYKINGDKEIMRRMDDLLQGFVAQHRMKLPGSAYIPCYEICT
notes: YgdH (ECK2790), nucleotide nucleosidase of E. coli K-12, expressed from the ASKA plasmid library (pCA24N vector); The ASKA clone carries the gene of E. coli K-12; The printed size of His6-YgdH is 53 kDa; source: E. coli ASKA collection AG1 strain, purified (Ni-NTA, size exclusion chromatography); not shown: His6, N-terminal, kept
Consider B1, for which the “stoichiometry N” value in [15] stood at 4.

What is called stoichiometry N is the number of molecules, sites or subunits per partner or assembly.
